Laboratory results from patent US20080051451A1, “Autoimmune conditions and NADPH oxidase defects” (priority 2006, published 2008).
Entries after “also recorded” stand apart in the source; their conditions may differ. Values belong to the molecule of their own block, whether it stands above or below them.

Legend:
DA.Ncf1^DA rats [1] = assay: Pristane induced arthritis (PIA) in DA.Ncf1^DA rats; format: in vivo, Rat (Rattus norvegicus); settings: for severity of PIA, therapeutic effect: 100 μl subcutaneous injections in the neck at day 8 and 10 after arthritis induction; for severity of PIA, oral administration in food 1% daily: mixed in the food for daily uptake; for severity of PIA, oral administration in food 500 mg/kg/day: mixed in the food for continuous uptake
Experimental: Treatments with compound 1 (phytol) or compound 5 (phytyl acetate) were administered to DA.Ncf1^DA rats as 100 μl subcutaneous injections in the neck at day 8 and 10 after arthritis induction (untreated control (◯), compound 1 (phytol) (♦) and compound 5 (phytyl acetate) (▴)) (FIG. 9).
Treatments with compound 2 (farnesol) or compound 4 (farnesylacetate) were administered to DA.Ncf1^DA rats as 100 μl subcutaneous injections in the neck at day 8 and 10 after arthritis induction, (untreated control (◯), compound 2 (farnesol) (▪) and compound 4 (farnesylacetate) (▴)) (FIG. 11).
Treatments with compound 1 (phytol), compound 6 (di-hydro-phytol, compound 5 (phytyl acetate), or compound 7 (di-hydro-phytyl acetate were administered to DA.Ncf1^DA rats as 100 μl subcutaneous injections in the neck at day 8 and 10 after arthritis induction, (untreated control (◯), compound 1 (phytol) (♦), compound 6 (di-hydro-phytol (▪), compound 5 (phytyl acetate) (▴) or compound 7 (di-hydro-phytyl acetate (●)) (FIG. 12).
Treatments of DA.Ncf1^DA rats with compound 1 (phytol) mixed in the food for continuous uptake compared with Omega3 fatty acids, (untreated control (◯), Omega3 fatty acid (□), phytol 1% daily (♦), phytol 1% every 2'nd day (▴), or phytol 1% initiated day 7 after arthritis induction (▪)) (FIG. 13).
Treatments of DA.Ncf1^DA rats with compound 5 (phytyl acetate) mixed in the food for daily uptake, (untreated control (◯), compound 1 (phytol) 1% daily (♦), or compound 5 (phytyl acetate) 1% daily (▴)) (FIG. 14).
Treatments with compound 1 (phytol) at 1.6 or 2.3 g/kg/day administered to DA.Ncf1^DA rats by oral gavage given by dosing every second day with compound 1 (phytol) […] (♦), compound 1 (phytol) […] (▴) or untreated control (◯).
Treatments of DA.Ncf1^DA rats with compound 1 (phytol) or compound 9 (isophytol) mixed in the food for continuous uptake compared with fenofibrate, (compound 1 (phytol) 500 mg/kg/day (♦), compound 9 (isophytol) 500 mg/kg/day (▴), or fenofibrate 100 mg/kg/day (□). Untreated control (◯).) (see FIG. 17).

Lewis.IF rat = assay: Pristane induced arthritis (PIA) in Lewis.IF rats; settings: 200 μl s.c. 5 days before induction of PIA
Experimental: (§1) Disease was induced in all rats at the age of 6-12 weeks. Arthritis development was monitored with a macroscopic scoring system of the four limbs ranging from 0 to 15 (1 point for each swollen or red toe, 1 point for midfoot digit or knuckle, 5 points for a swollen ankle). The scores of the four paws were added yielding a maximum total score of 60 for each rat.
(§2) Therapeutic treatments were administered s.c. or intra peritoneal (i.p.; 200 μl) after onset of disease in the acute or chronic phase (FIG. 6).

NADPH oxidase = assay: Oxidative burst response to PMA in spleen granulocytes after s.c. injection in vivo; set-up: species or system Rat (Rattus norvegicus); settings: spleen granulocytes 5 days after s.c. injection (200 μl) in DA.Ncf1^DA rats, PMA stimulation, compared to naive DA.Ncf1^DA and DA.Ncf1^E3
Experimental: The term DA.Ncf1^DA rats designates DA rats carrying the Ncf1 DA allele with impaired NADPH oxidase capacity and the term DA.Ncf1^E3 rats designates DA rats carrying the Ncf1^E3 allele with functional NADPH oxidase capacity (Olofsson & Holmdahl (2003) Scand J Immunol 58:155-164).
Oxidative burst response to PMA stimulation in vitro in spleen granulocytes taken 5 days after s.c. phytol injection in DA.Ncf1^DA rats (200 μl) compared to naive DA.Ncf1^DA and DA.Ncf1^E3 (n=5) (FIG. 3).

[2] = test system: Rats heterozygous for the functional Ncf1 (Ncf1^E3) allele with Pia3 locus; assay: Pristane induced arthritis (PIA) in rats with a functional oxidative burst; settings: injected i.p. (200 μl) at the estimated peak of disease
Experimental: as §1, §2

DA.Ncf1^DA rats [3] = assay: Non oil collagen induced arthritis (NOCIA); format: in vivo, Rat (Rattus norvegicus)
Experimental: Non oil collagen induced arthritis (NOCIA) was induced by emulsifying rat CII (300 μg) in a mixture of LPS (50 μg; Sigma Aldrich), CPG (5′-TCCATGACGTTCCTGACGTT-3′; SEQ ID NO:1) (45 μg; MWG-Biotech AG, Ebersberg, Germany) and alum (6 mg; Sigma Aldrich) and injected s.c. in a total volume of 300 μl.
Preventive effect on arthritis of phytol injection (200 μl s.c.) five days prior to induction of NOCIA in DA.Ncf1^DA rats, (control (Δ) and compound 1 (phytol) (▴)).
Delayed type hypersensitivity (DTH) response is abrogated after compound 1 (phytol) injection (FIG. 8B). Day 67 after NOCIA immunization the immune system was challenged by an injection of CII in the ear. Following increase in ear volume was measured and compared to control ear (control n=7 and compound 1 (phytol) n=8).

DA.Ncf1^DA rats [4] = assay: Experimental allergic encephalomyelitis (EAE) in vivo; set-up: species or system Rat (Rattus norvegicus); settings: 200 μL injected at the base of the tail at day 0; scored 40 days; p<0.01 vs untreated control
Experimental: At day 0, all rats were treated (immunized) with 200 μL SCH (DA.Ncf1^DA spinal cord homogenate, to induce EAE) i.d. at the base of the tail. The rats were then scored according to the following scale for 40 days: • 0=Normal • 1=Tail weakness • 2=Tail paralysis • 3=Tail paralysis and mild […] • 4=Tail paralysis and severe […] • 5=Tail paralysis and paralysis of one limb • 6=Tail paralysis and paralysis of a pair of limbs • 7=Tetra-paresis • 8=Pre-morbid or dead. […] EAE began to appear around day 6.

[5] = Biodistribution of 3H-labelled phytol; format: in vivo, Rat (Rattus norvegicus)
Experimental: DA rats originating from Harlan Netherlands (N=4 rats per group) injected with compound 1 (phytol) mixed with radiolabelled compound 1 (phytol) (Moravek Biochemicals, CA) to a total volume of […] at 167 μCi/rat with ^3H-Phytol. At sacrifice at day 2, 4, 8, 11 and 17, respectively, inguinal lymph nodes, spleen, heart, thymus, kidney, liver, lung, adipose tissue, muscle, injection site tissue and blood were collected in equal amount of saline solution in pre-weight tubes (blood with heparin to prevent coagulation). The tissues were homogenized and mixed with ready-safe scintillation liquid (Beckman Coulter, CA). Biodistribution was estimated as relative CPM per gram tissue.

DA.Ncf1^DA rats [6] = assay: Collagen induced arthritis (CIA) with oil adjuvant; format: in vivo, Rat (Rattus norvegicus)
Experimental: Collagen induced arthritis (CIA) was induced by an s.c. injection of 100 μl of rat collagen type II (CII; 100 μg/rat-150 μg/rat), emulsified in incomplete Freund's adjuvant (IFA; Sigma Aldrich) (FIG. 7).
Effect of s.c. administration of phytol (200 μl) 5 days.
At day 27 after immunization, sera were taken and analyzed for anti-CII IgG levels (n=7). Titers are relative to pooled positive sera (units).

HL-60 cells = assay: Oxidative burst assay of granulocytes in vitro (isoluminol, extra-cellular ROS); settings: HL-60 differentiated to granulocytes, 50 minutes, 37° C.
Experimental: The human myeloma cell line HL-60 (ATCC, CCI-240) was cultured in D-MEM (Gibco, Paisley, UK) complemented with 10% fetal calf serum and Penicillin-Streptomycin. […] Before assaying the cells were washed and resuspended in PBS to a concentration of 10^7 cells/ml.
Briefly, 5 μl of resuspended oils were added into 96-well plates containing 5×10^5 cells/well in a total volume of 200 μl PBS/well (final concentration isoluminol 50 μg/ml; Sigma Aldrich) and horse radish peroxidase (type II 2,5 U/ml; Sigma Aldrich). Samples were gently mixed and the data collection was initiated immediately. Extra-cellular ROS production was followed at 37° C. as produced luminescence signal (FluoStar Optima, BMG Labtechnologies, Offenburg, Germany) and presented as maximal relative signal during a measurement period of 50 minutes.
The cells were differentiated to granulocytes by culture in presence of 1,25% dimethylsulfoxide (DMSO; Sigma Aldrich Inc., Milwaukee, Wis.) for six days.

DA.Ncf1^DA rats [7] = assay: Pristane induced arthritis (PIA) in DA.Ncf1^DA rats; format: in vivo, Rat (Rattus norvegicus)
[8] = Arthritogenicity / arthritis effect (general statement); format: in vivo; settings: general statement in Example 3
[9] = relative CPM per gram tissue, day 2, 4, 8, 11, 17

Compound: CC(=O)OC/C=C(\C)CCCC(C)CCCC(C)CCCC(C)C (stereo not drawn) [compound 5, Acetic acid 3,7,11,15-tetra-metyl-hexadec-2-enyl-ester]
severity of PIA, therapeutic effect (DA.Ncf1^DA rats [1]): therapeutic effect comparable to the therapeutic effect of the un-derivatized compound 1; also recorded: therapeutic effects
severity of PIA, oral administration in food 1% daily (DA.Ncf1^DA rats [1]): equally effective as oral treatment with compound 1 (phytol) in reducing the severity of arthritis

fraction remaining as a depot in the injection site ([5]; DA rats, 3H-Phytol injection): > 90%
arthritogenicity [8]: non arthritogenic
Compound: C/C(=C\CO)CCCC(C)CCCC(C)CCCC(C)C (stereo not drawn) [compound 1, 3,7,11,15-Tetramethyl-2-hexadecen-1-ol]
severity of PIA, preventive, Lewis.IF rat (Lewis.IF rat): arthritis preventing effect
Oxidative burst / NADPH oxidase capacity in vivo (NADPH oxidase): restores to NADPH oxidase capacity to a level comparable to the level of NADPH oxidase capacity in rats with a functional oxidative burst
Oxidative burst / NADPH oxidase capacity in vivo (NADPH oxidase; listed as Phytol): restores the oxidative burst defect in vivo
severity of arthritis in rats with a functional oxidative burst [2]: arthritis ameliorating effect
arthritis severity in NOCIA (DA.Ncf1^DA rats [3]; 200 μl s.c. five days prior to induction): reduces arthritis severity
Delayed type hypersensitivity (DTH) response (increase in ear volume) (DA.Ncf1^DA rats [3]; CII challenge in the ear day 67 after NOCIA immunization): abrogated
severity of PIA, therapeutic effect (DA.Ncf1^DA rats [1]): therapeutic effects
severity of PIA, oral administration in food 500 mg/kg/day (DA.Ncf1^DA rats [1]): reduced the severity of arthritis
severity of PIA, oral administration in food 1% daily (DA.Ncf1^DA rats [1]): reducing the severity of arthritis
adverse effect of the high doses (macroscopic observation, postmortem dissection) (DA.Ncf1^DA rats [1]; oral gavage every second day, both doses): No adverse effect
severity of PIA, oral administration in food, three regimes (DA.Ncf1^DA rats [1]; phytol 1% daily, 1% every 2'nd day, or 1% initiated day 7 after arthritis induction): reduced the severity of arthritis
severity of inflammatory and paralyzing symptoms of EAE (score 0-8) (DA.Ncf1^DA rats [4]): significant difference in severity of inflammatory and paralyzing symptoms of EAE
cellular localisation of staining in lymph nodes ([5]; rat, in vivo): in-between cells or in the cell membrane, i.e. not intracellular
distribution within the draining lymph nodes ([5]; rat, in vivo): distributed primarily to the cortical regions as well as close to the sinusoidal space of the draining lymph nodes
primary tissue for accumulation [5, 9]: draining lymph nodes were the primary tissue for accumulation
time course of distribution to the inguinal lymph nodes [5, 9]: highest accumulation more than one week after injection and showed a decrease after two weeks
anti-CII antibody (IgG) levels in serum (DA.Ncf1^DA rats [6]; day 27 after immunization): decreases anti-CII antibody levels in serum
severity of collagen-induced arthritis (DA.Ncf1^DA rats [6]; s.c. administration (200 μl) 5 days before immunization with CII): prevents collagen-induced arthritis
Extra-cellular ROS production (maximal relative luminescence signal) (HL-60 cells): strong ROS production
severity of PIA, oral gavage (DA.Ncf1^DA rats [7]; both doses, every second day (1.6 and 3.2 mg/kg as printed elsewhere in the source)): potent arthritis ameliorating effect
severity of arthritis, chronic phase of PIA (DA.Ncf1^DA rats [7]; injected i.p. twice (200 μl) starting day 70, three days between treatments): decreases arthritis severity in the chronic phase of arthritis
severity of PIA (arthritis score), preventive (DA.Ncf1^DA rats [7]; injected s.c. day -5 prior to pristane injection): inhibits development of arthritis
cartilage destruction (serum COMP levels) (DA.Ncf1^DA rats [7]; sera taken day 38, treatment from day 22): Cartilage destruction is decreased
severity of arthritis, acute phase of established PIA (DA.Ncf1^DA rats [7]; two injections (200 μl, s.c. or i.p.) with 5 days in between starting day 22): ameliorates disease in the acute phase of arthritis
arthritis ameliorating effects [8]: arthritis ameliorating effects

Compound: CC(=O)OC/C=C(\C)CC/C=C(\C)CCC=C(C)C [compound 4, Acetic acid 3,7,11-trimethyl-dodeca-2,6,10-trienyl ester]
severity of PIA, therapeutic effect (DA.Ncf1^DA rats [1]): therapeutic effect comparable to the therapeutic effect of the un-derivatized compound 2

Compound: CC(C)OC(=O)C(C)(C)Oc1ccc(C(=O)c2ccc(Cl)cc2)cc1 [fenofibrate, propan-2-yl 2-[4-(4-chlorobenzoyl)phenoxy]-2-methyl-propanoate, reference compound]
severity of PIA, oral fenofibrate 100 mg/kg/day (DA.Ncf1^DA rats [1]; 100 mg/kg/day): no effect on the severity of arthritis

Compound: CC(=O)OCCC(C)CCCC(C)CCCC(C)CCCC(C)C (stereo not drawn) [compound 7, Acetic acid 3,7,11,15-tetramethyl-hexadecyl ester]
severity of PIA, therapeutic effect (DA.Ncf1^DA rats [1]): therapeutic effect comparable to the therapeutic effects of compound 1 and compound 5

Compound: C=CC(C)(O)CCCC(C)CCCC(C)CCCC(C)C (stereo not drawn) [compound 9, 3,7,11,15-Tetramethyl-1-hexadecen-3-ol]
severity of PIA, oral administration in food 500 mg/kg/day (DA.Ncf1^DA rats [1]): reduced the severity of arthritis
Extra-cellular ROS production (maximal relative luminescence signal) (HL-60 cells): strong ROS production

arthritogenicity [8]: non arthritogenic
Compound: CC(C)=CCC/C(C)=C/CC/C(C)=C/CC/C(C)=C/CO [compound 3, 3,7,11,15-Tetramethyl-hexada-2,6,10,14-tetraen-1-ol]
Extra-cellular ROS production (maximal relative luminescence signal) (HL-60 cells): strong ROS production
arthritis ameliorating effects [8]: arthritis ameliorating effects

arthritogenicity [8]: non arthritogenic
Compound: CC(C)=CCC/C(C)=C/CC/C(C)=C/CO [compound 2, 3,7,11-Trimethyl-2,6,10-dodecatrien-1-ol]
severity of PIA, therapeutic effect (DA.Ncf1^DA rats [1]): therapeutic effect
Extra-cellular ROS production (maximal relative luminescence signal) (HL-60 cells): strong ROS production
arthritis ameliorating effects [8]: arthritis ameliorating effects

Compound: CC(C)CCCC(C)CCCC(C)CCCC(C)CCO (stereo not drawn) [compound 6, 3,7,11,15-Tetramethyl-hexadecan-1-ol]
severity of PIA, therapeutic effect (DA.Ncf1^DA rats [1]): therapeutic effect comparable to the therapeutic effects of compound 1 and compound 5
